{"source": "patent US12606520B2", "about": "“Calpain-2 inhibitor compounds and methods of treatment” (WESTERN UNIVERSITY OF HEALTH SCIENCES, priority 2020, dated 2026)", "key": {"[1]": {"experiment": "Stability in mouse liver homogenate (residual inhibition of purified human calpain-2)", "format": "in vitro ADME", "details": "B-cyclodextrin formulation, read-out: Estimated half-life in mouse liver homogenate (converted)", "experimental": "Aliquots were taken and the degree of inhibition of purified human calpain-2 was measured. Results were normalized to the maximum degree of inhibition (100%) measured at t0."}, "[2]": {"experiment": "PK in mice after iv injection of liposomal NA112: plasma", "format": "in vivo", "details": "for concentration at 0.0167 hr / concentration at 0.0833 hr / concentration at 0.25 hr / concentration at 0.5 hr / concentration at 1 hr / concentration at 2 hr / concentration at 4 hr / concentration at 8 hr / concentration at 16 hr / concentration at 24 hr: iv, 10 mg/kg, mice iv 10 mg/kg liposomes", "experimental": "(§1) NA112 was prepared in liposomes at a concentration of 1.5 mg/ml. Mice were injected in the tail vein with 200 μl of NA112 in liposomes (corresponding to a dose of 10 mg/kg) and were sacrificed at the following time-points: 1, 5, 15, 30 min, 1, 2, 4, 8, 16 and 24 h. Blood was collected and plasma rapidly prepared by centrifugation. Brains were also collected. NA112 in plasma and in brain homogenates was assayed with LC/Ms and the sensitivity of the assay was 1 ng/ml. Experiments were performed in duplicate (A1 and A2 in Table 3). Results were averaged for preparing the figure and calculating the half-life of NA112 in plasma and in brain.\nA two-compartment model was used to analyze the data from FIG. 14. This assumes that there is a rapid distribution of the drug from the plasma to various organs, followed by a slower elimination of the drug form the plasma. […] In FIG. 16, changes in NA112 plasma concentrations fitted with the 2-compartment model. The data from FIG. 14 are fitted with the 2-compartment model equation, showing the very good fit between the predicted values and the observed values."}, "[3]": {"experiment": "PK in mice after iv injection of liposomal NA112: brain", "format": "in vivo", "details": "mouse; for concentration at 1 min / concentration at 5 min / concentration at 0.25 h / concentration at 0.5 hr / concentration at 1 hr / concentration at 2 h / concentration at 4 h / concentration at 8 h / concentration at 16 h: iv, 10 mg/kg, mice iv 10 mg/kg liposomes; for concentration at 1 min: 0.0167 hr; for concentration at 5 min: 0.0833 hr", "experimental": "as §1\nData from table 4 are plotted as a function of time. While the curve is not easily fitted with a 2-compartment model, the slower component appears to have a half-life of about 3 h."}, "cell death in cortex": {"tested_on": "cell death in cortex", "experiment": "Cell death in cortex 24 h after TBI in rats", "format": "in vivo", "details": "1 mg/kg i.p. at 1 h and 8 h after TBI", "experimental": "We also performed the same model of TBI in male and female mice and in male and female rats. In all cases, NA184 was injected i.p. at 1 mg/kg. For the rat experiments, NA184 was injected twice at 1 h and 8 h after TBI. Animals were sacrificed 24 h after TBI and calpain activity was assayed in brain and cell death was analyzed in cortex. […] In addition, there was a highly significant correlation between calpain-2 activity and cell death in rats (FIG. 23). R^2 was 0.61 and p<0.005."}, "[4]": {"details": "2-compartmental model, mice iv 10 mg/kg in liposomes"}, "[5]": {"details": "mouse, read-out: Plasma concentration A1"}, "[6]": {"details": "mouse, read-out: Plasma concentration A2"}, "[7]": {"details": "mouse, read-out: Plasma concentration Mean"}, "[8]": {"details": "read-out: Brain concentration A1"}, "[9]": {"details": "read-out: Brain concentration A2"}, "[10]": {"details": "read-out: Brain concentration Mean"}}, "note": "Like-named read-outs stand apart in the source and are kept apart here."}
{"smiles": "CCC(NC(=O)[C@H](CC(C)C)NC(=O)NCc1ccccc1)C(=O)C(=O)NCc1cc(OC)cc(OC)c1", "note": "(mixture of isomers) [NA112, (2S)-2-(3-benzylureido)-N-(1-((3,5-dimethoxybenzyl)amino)-1,2-dioxopentan-3-yl)-4-methylpentanamide]", "values": [{"measurement": "half-life", "setting": "[1]", "result": 15, "unit": "h"}, {"measurement": "A", "setting": "[2]; [4]", "result": 28944.68, "unit": "ng/mL"}, {"measurement": "B", "setting": "[2]; [4]", "result": 42.70, "unit": "ng/mL"}, {"measurement": "T½α", "setting": "[2]; [4]", "result": 0.23, "unit": "h"}, {"measurement": "T½β", "setting": "[2]; [4]", "result": 7.80, "unit": "h"}, {"measurement": "α", "setting": "[2]; [4]", "result": 3.01, "unit": "h⁻¹"}, {"measurement": "β", "setting": "[2]; [4]", "result": 0.09, "unit": "h⁻¹"}, {"measurement": "half-life", "setting": "[2]; mouse, 2-compartment model, mice iv 10 mg/kg in liposomes", "result": 7.8, "unit": "h"}, {"measurement": "AUC from zero to infinity", "setting": "[2]; mouse, 2-compartmental model, mice iv 10 mg/kg in liposomes, read-out: AUC0-00", "result": 17000, "unit": "ng·h/mL"}, {"measurement": "concentration at 0.0167 hr", "setting": "[2]; [5]", "result": 45300, "unit": "ng/mL"}, {"measurement": "concentration at 0.0167 hr", "setting": "[2]; [6]", "result": 63500, "unit": "ng/mL"}, {"measurement": "concentration at 0.0167 hr", "setting": "[2]; [7]", "result": 54400, "unit": "ng/mL"}, {"measurement": "concentration at 0.0833 hr", "setting": "[2]; [5]", "result": 116000, "unit": "ng/mL"}, {"measurement": "concentration at 0.0833 hr", "setting": "[2]; [6]", "result": 69100, "unit": "ng/mL"}, {"measurement": "concentration at 0.0833 hr", "setting": "[2]; [7]", "result": 92300, "unit": "ng/mL"}, {"measurement": "concentration at 0.25 hr", "setting": "[2]; [5]", "result": 2120, "unit": "ng/mL"}, {"measurement": "concentration at 0.25 hr", "setting": "[2]; [6]", "result": 939, "unit": "ng/mL"}, {"measurement": "concentration at 0.25 hr", "setting": "[2]; [7]", "result": 1530, "unit": "ng/mL"}, {"measurement": "concentration at 0.5 hr", "setting": "[2]; [5]", "result": 6760, "unit": "ng/mL"}, {"measurement": "concentration at 0.5 hr", "setting": "[2]; [6]", "result": 432, "unit": "ng/mL"}, {"measurement": "concentration at 0.5 hr", "setting": "[2]; [7]", "result": 3590, "unit": "ng/mL"}, {"measurement": "concentration at 1 hr", "setting": "[2]; [5]", "result": 5550, "unit": "ng/mL"}, {"measurement": "concentration at 1 hr", "setting": "[2]; [6]", "result": 390, "unit": "ng/mL"}, {"measurement": "concentration at 1 hr", "setting": "[2]; [7]", "result": 2970, "unit": "ng/mL"}, {"measurement": "concentration at 2 hr", "setting": "[2]; [5]", "result": 107, "unit": "ng/mL"}, {"measurement": "concentration at 2 hr", "setting": "[2]; [6]", "result": 84, "unit": "ng/mL"}, {"measurement": "concentration at 2 hr", "setting": "[2]; [7]", "result": 95.5, "unit": "ng/mL"}, {"measurement": "concentration at 4 hr", "setting": "[2]; [5]", "result": 34.6, "unit": "ng/mL"}, {"measurement": "concentration at 4 hr", "setting": "[2]; [6]", "result": 30, "unit": "ng/mL"}, {"measurement": "concentration at 4 hr", "setting": "[2]; [7]", "result": 32.3, "unit": "ng/mL"}, {"measurement": "concentration at 8 hr", "setting": "[2]; [5]", "result": 17.4, "unit": "ng/mL"}, {"measurement": "concentration at 8 hr", "setting": "[2]; [6]", "result": 20.6, "unit": "ng/mL"}, {"measurement": "concentration at 8 hr", "setting": "[2]; [7]", "result": 19, "unit": "ng/mL"}, {"measurement": "concentration at 16 hr", "setting": "[2]; [5]", "result": 10.8, "unit": "ng/mL"}, {"measurement": "concentration at 16 hr", "setting": "[2]; [6]", "result": 9.79, "unit": "ng/mL"}, {"measurement": "concentration at 16 hr", "setting": "[2]; [7]", "result": 10.3, "unit": "ng/mL"}, {"measurement": "concentration at 24 hr", "setting": "[2]; [5]", "result": 5.63, "unit": "ng/mL"}, {"measurement": "concentration at 24 hr", "setting": "[2]; [6]", "result": 4.67, "unit": "ng/mL"}, {"measurement": "concentration at 24 hr", "setting": "[2]; [7]", "result": 5.15, "unit": "ng/mL"}, {"measurement": "concentration at 1 min", "setting": "[3]; [8]", "result": 520, "unit": "ng/mL"}, {"measurement": "concentration at 1 min", "setting": "[3]; [9]", "result": 305, "unit": "ng/mL"}, {"measurement": "concentration at 1 min", "setting": "[3]; [10]", "result": 412, "unit": "ng/mL"}, {"measurement": "concentration at 5 min", "setting": "[3]; [8]", "result": 168, "unit": "ng/mL"}, {"measurement": "concentration at 5 min", "setting": "[3]; [9]", "result": 129, "unit": "ng/mL"}, {"measurement": "concentration at 5 min", "setting": "[3]; [10]", "result": 149, "unit": "ng/mL"}, {"measurement": "concentration at 0.25 h", "setting": "[3]; [8]", "result": 106, "unit": "ng/mL"}, {"measurement": "concentration at 0.25 h", "setting": "[3]; [9]", "result": 62.3, "unit": "ng/mL"}, {"measurement": "concentration at 0.25 h", "setting": "[3]; [10]", "result": 84.4, "unit": "ng/mL"}, {"measurement": "concentration at 0.5 hr", "setting": "[3]; [8]", "result": 60.6, "unit": "ng/mL"}, {"measurement": "concentration at 0.5 hr", "setting": "[3]; [9]", "result": 63.4, "unit": "ng/mL"}, {"measurement": "concentration at 0.5 hr", "setting": "[3]; [10]", "result": 62, "unit": "ng/mL"}, {"measurement": "concentration at 1 hr", "setting": "[3]; [8]", "result": 45.6, "unit": "ng/mL"}, {"measurement": "concentration at 1 hr", "setting": "[3]; [9]", "result": 48.4, "unit": "ng/mL"}, {"measurement": "concentration at 1 hr", "setting": "[3]; [10]", "result": 47, "unit": "ng/mL"}, {"measurement": "concentration at 2 h", "setting": "[3]; [8]", "result": 25.9, "unit": "ng/mL"}, {"measurement": "concentration at 2 h", "setting": "[3]; [9]", "result": 30.9, "unit": "ng/mL"}, {"measurement": "concentration at 2 h", "setting": "[3]; [10]", "result": 28.4, "unit": "ng/mL"}, {"measurement": "concentration at 4 h", "setting": "[3]; [8]", "result": 14, "unit": "ng/mL"}, {"measurement": "concentration at 4 h", "setting": "[3]; [9]", "result": 21.3, "unit": "ng/mL"}, {"measurement": "concentration at 4 h", "setting": "[3]; [10]", "result": 17.6, "unit": "ng/mL"}, {"measurement": "concentration at 8 h", "setting": "[3]; [8]", "result": 19.5, "unit": "ng/mL"}, {"measurement": "concentration at 8 h", "setting": "[3]; [9]", "result": 15.4, "unit": "ng/mL"}, {"measurement": "concentration at 8 h", "setting": "[3]; [10]", "result": 17.4, "unit": "ng/mL"}, {"measurement": "concentration at 16 h", "setting": "[3]; [8]", "result": 6.65, "unit": "ng/mL"}, {"measurement": "concentration at 16 h", "setting": "[3]; [9]", "result": 9.41, "unit": "ng/mL"}, {"measurement": "concentration at 16 h", "setting": "[3]; [10]", "result": 8.03, "unit": "ng/mL"}, {"measurement": "half-life", "setting": "[3]; mice, iv 10 mg/kg in liposomes, read-out: Half-life of slower component in brain (converted)", "result": "~3", "unit": "h"}]}
{"smiles": "CCC(NC(=O)[C@H](CC(C)C)NC(=O)NCc1ccccc1)C(=O)C(=O)NCc1cccc(Cl)c1OC", "note": "(stereo partly drawn) [NA184, (2S)-2-(3-benzylureido)-N-(1-((3-chloro-2-methoxybenzyl)amino)-1,2-dioxopentan-3-yl)-4-methylpentanamide]", "values": [{"measurement": "Cell death in cortex, male and female rats", "setting": "cell death in cortex", "result": "significantly prevented cell death"}]}
